Laboratory results reported in US20260078346A1, “Cell Tissue Production Method, Application Method and Application Device” (NTN Corporation, priority 2022, published 2026).

How the values were obtained:
[1] = test system: application tissue (myocardial tissue of iPS cardiomyocytes and normal human cardiac fibroblasts); assay: Ca2+ transient waveform change on addition of isoproterenol, application tissue; assay type: cell-based; conditions: increasing isoproterenol concentration (nM)
Experimental: (§1) After a myocardial tissue after being cultured for seven days was dyed, Ca^2+ transient measurement was performed from the viewpoint of checking a function of myocardial contraction. The measurement was performed for a myocardial tissue after culture (hereinafter described as “application tissue”) illustrated in FIG. 29 in this example and a planarly cultured tissue (hereinafter described as “2D tissue”) serving as a comparative example. In the myocardial tissue in the comparative example, iPS cardiomyocytes (iCell Cardiomyocyte 2) and normal human cardiac fibroblast were set to 4:1 in a number ratio. In the myocardial tissue in the comparative example, 50000 cells per one well were seeded and planarly cultured in the same culture medium as the culture medium of the application tissue obtained by the same application device as the application device in the second embodiment. A result of the Ca^2+ transient measurement is illustrated in the following Table 1.
(§2) Subsequently, a change in a Ca^2+ transient waveform at the time when isoproterenol that is a β adrenergic receptor agonist was added was evaluated. In general, the isoproterenol raises the heart rate and the contraction force of a cardiomyocyte. The contraction force of the cardiomyocyte has a correlation with the fluorescence intensity (AMP) of the Ca^2+ transient measurement. […]

[2] = test system: 2D tissue (planarly cultured iPS cardiomyocytes and normal human cardiac fibroblasts); assay: Ca2+ transient waveform change on addition of isoproterenol, 2D tissue; assay type: cell-based; conditions: increasing isoproterenol concentration (nM)
Experimental: as §1, §2

CC(C)NCC(O)c1ccc(O)c(O)c1 (stereo not shown) [isoproterenol]
change in BPM when isoproterenol is added ([1]; FIG. 31): rose according to an increase in the isoproterenol concentration
change in AMP (fluorescence intensity) when isoproterenol is added ([1]; FIG. 32): rose depending on the concentration of the isoproterenol
change in BPM when isoproterenol is added ([2]; FIG. 31): rose according to an increase in the isoproterenol concentration
change in AMP (fluorescence intensity) when isoproterenol is added ([2]; FIG. 32): did not rise much
